The results in this text go back to US10294202B2, “Pyrrolidinones as herbicides” (FMC Corporation, priority 2013, dated 2019).

The test system of one test is wild poinsettia. Kind of test: Test E preemergence herbicide test. Type of test: in vivo, Euphorbia heterophylla. On the set-up: key: 0 = no effect, 100 = complete control. An excerpt:
(§1) Seeds of plant species selected from corn (Zea mays), soybean (Glycine max), velvetleaf (Abutilon theophrasti), lambsquarters (Chenopodium album), wild poinsettia (Euphorbia heterophylla), pigweed, palmer (palmer pigweed, Amaranthus palmeri), waterhemp (common waterhemp, Amaranthus rudis), surinam grass (Brachiaria decumbens), crabgrass, large (large crabgrass, Digitaria sanguinalis), crabgrass, Brazil (Brazilian crabgrass, Digitaria horizontalis), panicum, fall (fall panicum, Panicum dichotomiflorum), foxtail, giant (giant foxtail, Setaria faberii), foxtail, green (green foxtail, Setaria viridis), goosegrass (Eleusine indica), johnsongrass (Sorghum halepense), ragweed (common ragweed, Ambrosia elatior), barnyardgrass (Echinochloa crus-galli), sandbur (southern sandbur, Cenchrus echinatus), arrowleaf […] rhombifolia), ryegrass, Italian (Italian ryegrass, Lolium multiflorum), dayflower, VA (Virginia dayflower, Commelina virginica), field bindweed (Convolvulus arvensis), morningglory (Ipomoea coccinea), nightshade (eastern black nightshade, Solanum ptycanthum), kochia (Kochia scoparia), nutsedge, yellow (yellow nutsedge, Cyperus esculentus), cocklebur (common cocklebur, Xanthium strumarium), smartweed (ladysthumb smartweed, Polygonum Persicaria) and beggarticks (hairy beggarticks, Bidens pilosa), were planted into a silt loam soil and treated preemergence with test chemicals formulated in a non-phytotoxic solvent mixture which included a surfactant. Treated plants and controls were maintained in a greenhouse for 21 days, after which time all species were compared to controls and visually evaluated. Plant response ratings, summarized in Table E, are based on a scale of 0 to 100 where 0 is no effect and 100 is complete control. A dash (-) response means no test result.

A further test has as its system kochia. Kind of test: Test E preemergence herbicide test. On the set-up: key: 0 = no effect, 100 = complete control. The format is in vivo, Kochia scoparia.
Text: as §1

A further test deals with oat, wild. Kind of test: Test D pre-/postemergence herbicide test. Type of test: in vivo, Avena fatua. Particulars: for Plant response rating: Postemergence, Oat, Wild, scale 0 to 100; for Plant response rating, Oat, Wild: Preemergence, scale 0 to 100 (0 no effect, 100 complete control). From the text: Seeds of plant species selected from bluegrass (annual bluegrass, Poa annua), blackgrass (Alopecurus myosuroides), canarygrass (littleseed canarygrass, Phalaris minor), chickweed (common chickweed, Stellaria media), galium (catchweed bedstraw, Galium aparine), bromegrass, downy (downy bromegrass, Bromus tectorum), field poppy (Papaver rhoeas), field violet (Viola arvensis), foxtail, green (green foxtail, Setaria viridis), deadnettle (henbit deadnettle, Lamium amplexicaule), ryegrass, Italian (Italian ryegrass, Lolium multiflorum), kochia (Kochia scoparia), lambsquarters (Chenopodium album), oilseed rape (Brassica napus), pigweed (Amaranthus retroflexus), chamomile (scentless chamomile, Matricaria inodora), Russian thistle (Salsola kali), speedwell (bird's-eye speedwell, Veronica persica), barley, spring (spring barley, Hordeum vulgare), wheat, spring (spring wheat, Triticum aestivum), buckwheat, wild (wild buckwheat, Polygonum convolvulus), mustard, wild (wild mustard, Sinapis arvensis), oat, wild (wild oat, Avena fatua), radish, wild (wild radish, Raphanus raphanistrum), […]), barley, winter (winter barley, Hordeum vulgare), and wheat, winter (winter wheat, Triticum aestivum) were planted into a silt loam soil and treated preemergence with test chemicals formulated in a non-phytotoxic solvent mixture which included a surfactant. At the same time, these species were planted in pots containing Redi-Earth® planting medium (Scotts Company, 14111 Scottslawn Road, Marysville, Ohio 43041) comprising spaghnum peat moss, vermiculite, wetting agent and starter nutrients and treated with postemergence applications of the test chemicals formulated in the same manner. Plants ranged in height from 2 to 18 cm (1- to 4-leaf stage). Treated plants and controls were maintained in a controlled growth environment for 7 to 21 days after which time all species were compared to controls and visually evaluated. Plant response ratings, summarized in Table D, are based on a scale of 0 to 100 where 0 is no effect and 100 is complete control. A dash (-) response means no test result.

Another test deals with galium. Kind of test: Test D pre-/postemergence herbicide test. Particulars: for Plant response rating: Galium, scale 0 to 100; for Plant response rating, Galium: scale 0 to 100 (0 no effect, 100 complete control). Type of test: in vivo, Galium aparine. In outline:
(§2)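 Visual 0–100 ratings (0 = no effect, 100 = complete control) versus controls, made 7 to 21 days after treatment in a controlled growth environment. Test chemicals in surfactant-containing non-phytotoxic solvent were applied preemergence to silt loam-sown seeds and postemergence to plants 2–18 cm tall.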

The next test has as its system buckwheat, wild. Kind of test: Test D pre-/postemergence herbicide test. Particulars: for Plant response rating: Buckwheat, Wild, scale 0 to 100; for Plant response rating, Buckwheat, Wild: scale 0 to 100 (0 no effect, 100 complete control). Type of test: in vivo, Polygonum convolvulus. An outline of the steps:
as §2

Regarding `O=C1NCC(c2ccc(Cl)c(Cl)c2)C1C(=O)Nc1ccccc1F` (racemic) [Compound 14], the “Plant response rating, Poinsettia, Wild” value in the test with wild poinsettia (16 g ai/ha) is 0; in the test with wild poinsettia (31 g ai/ha), 0; in the test with wild poinsettia (62 g ai/ha) it was 15; with wild poinsettia (125 g ai/ha) it was 20; with wild poinsettia (250 g ai/ha) it was 25. Also, the “Plant response rating, Kochia” value in the test with kochia (16 g ai/ha), in the test with kochia (31 g ai/ha), with kochia (62 g ai/ha), in the test on kochia (125 g ai/ha) and in the test on kochia (250 g ai/ha) was 0 throughout.

For `O=C1NCC(c2ccc(C(F)(F)F)cc2)C1C(=O)Nc1cccc(F)c1F` (racemic) [Compound 202], the Plant response rating in the test with oat, wild (31 g ai/ha) is reported as 5; in the test with oat, wild (62 g ai/ha), 10; with oat, wild (125 g ai/ha) it was 10; in the test with oat, wild (250 g ai/ha) it was 15; in the test on galium (Postemergence, 31 g ai/ha), 60; with galium (Postemergence, 62 g ai/ha), 70. The Plant response rating in the test with galium (Postemergence, 125 g ai/ha) is reported as 70; with galium (Postemergence, 250 g ai/ha) it was 70; in the test with galium (Preemergence, 125 g ai/ha), 80; with galium (Preemergence, 250 g ai/ha) it was 85; in the test with buckwheat, wild (Postemergence, 31 g ai/ha), 0; in the test with buckwheat, wild (Postemergence, 62 g ai/ha), 0. The Plant response rating with buckwheat, wild (Postemergence, 125 g ai/ha) amounted to 0; in the test on buckwheat, wild (Postemergence, 250 g ai/ha), 10; with buckwheat, wild (Preemergence, 125 g ai/ha), 10; in the test with buckwheat, wild (Preemergence, 250 g ai/ha), 15. The “Plant response rating, Oat, Wild” value in the test with oat, wild (62 g ai/ha) was determined as 20; with oat, wild (125 g ai/ha), 35; in the test on oat, wild (31 g ai/ha), 5; in the test with oat, wild (250 g ai/ha), 40. The “Plant response rating, Galium” value in the test with galium (Preemergence, 62 g ai/ha) worked out at 70; in the test with galium (Preemergence, 31 g ai/ha), 75. Also, the “Plant response rating, Poinsettia, Wild” value with wild poinsettia (31 g ai/ha) amounted to 0; in the test with wild poinsettia (62 g ai/ha), 0; with wild poinsettia (125 g ai/ha), 25; in the test with wild poinsettia (250 g ai/ha), 65. The “Plant response rating, Buckwheat, Wild” value in the test on buckwheat, wild (Preemergence, 62 g ai/ha) is listed as 10; in the test on buckwheat, wild (Preemergence, 31 g ai/ha), 0. Besides, the “Plant response rating, Kochia” value turned out to be 95 in the test with kochia (31 g ai/ha), 95 in the test with kochia (62 g ai/ha), 95 in the test on kochia (125 g ai/ha) and 98 in the test on kochia (250 g ai/ha).

`O=C1NCC(c2ccc(OC(F)F)cc2)C1C(=O)Nc1cccc(F)c1F` (racemic) [Compound 350]: the “Plant response rating, Poinsettia, Wild” value in the test with wild poinsettia (31 g ai/ha) is given as 0; in the test with wild poinsettia (62 g ai/ha), 0; in the test with wild poinsettia (125 g ai/ha), 0; in the test on wild poinsettia (250 g ai/ha), 30. Further, the “Plant response rating, Kochia” value in the test with kochia (31 g ai/ha) stood at 0; with kochia (62 g ai/ha), 40; in the test on kochia (125 g ai/ha), 75; in the test with kochia (250 g ai/ha) it was 90.

As for `O=C1NCC(c2ccc(F)c(F)c2)C1C(=O)Nc1cccc(F)c1F` (stereo not drawn) [Compound 17, N-(2,3-difluorophenyl)-4-(3,4-difluorophenyl)-2-oxo-3-pyrrolidinecarboxamide], the Plant response rating was determined as 0 with oat, wild (16 g ai/ha); 0 in the test with oat, wild (31 g ai/ha); 0 in the test with oat, wild (62 g ai/ha); 0 in the test on oat, wild (125 g ai/ha); 0 with oat, wild (250 g ai/ha); 0 in the test on galium (Postemergence, 16 g ai/ha). Moreover, the Plant response rating worked out at 0 in the test on galium (Postemergence, 31 g ai/ha); 0 in the test on galium (Postemergence, 62 g ai/ha); 10 with galium (Postemergence, 125 g ai/ha); 30 with galium (Postemergence, 250 g ai/ha); 0 in the test with buckwheat, wild (Postemergence, 16 g ai/ha); 0 in the test with buckwheat, wild (Postemergence, 31 g ai/ha). The Plant response rating with buckwheat, wild (Postemergence, 62 g ai/ha) amounted to 0; in the test on buckwheat, wild (Postemergence, 125 g ai/ha), 10; in the test on buckwheat, wild (Postemergence, 250 g ai/ha), 20. The “Plant response rating, Poinsettia, Wild” value in the test with wild poinsettia (16 g ai/ha) is 0; in the test on wild poinsettia (31 g ai/ha) it was 0; in the test on wild poinsettia (62 g ai/ha) it was 0; with wild poinsettia (125 g ai/ha) it was 0; with wild poinsettia (250 g ai/ha), 20. In addition, the “Plant response rating, Kochia” value came to 0 in the test with kochia (16 g ai/ha); 0 in the test with kochia (31 g ai/ha); 0 in the test on kochia (62 g ai/ha); 25 in the test on kochia (125 g ai/ha); 50 in the test on kochia (250 g ai/ha).

For `O=C1NCC(c2ccc(C(F)(F)F)cc2)C1C(=O)Nc1cccc(F)c1F` (stereo not drawn) [Compound 80, N-(2,3-difluorophenyl)-2-oxo-4-[4-(trifluoromethyl)phenyl]-3-pyrrolidinecarboxamide], the Plant response rating with oat, wild (31 g ai/ha) is 10; in the test with oat, wild (62 g ai/ha), 10; in the test on oat, wild (125 g ai/ha) it was 5; in the test on oat, wild (250 g ai/ha), 10; with galium (Postemergence, 31 g ai/ha) it was 20; in the test with galium (Postemergence, 62 g ai/ha) it was 45. For the same compound, the Plant response rating in the test on galium (Postemergence, 125 g ai/ha) came out at 55; with galium (Postemergence, 250 g ai/ha), 60; in the test on galium (Preemergence, 125 g ai/ha) it was 65; with galium (Preemergence, 250 g ai/ha) it was 75; in the test on buckwheat, wild (Postemergence, 31 g ai/ha) it was 0; in the test with buckwheat, wild (Postemergence, 62 g ai/ha) it was 10. Also, the Plant response rating is reported as 0 in the test with buckwheat, wild (Postemergence, 125 g ai/ha); 0 in the test with buckwheat, wild (Postemergence, 250 g ai/ha); 5 with buckwheat, wild (Preemergence, 125 g ai/ha); 15 in the test on buckwheat, wild (Preemergence, 250 g ai/ha). The “Plant response rating, Oat, Wild” value in the test with oat, wild (62 g ai/ha) is 5; in the test with oat, wild (125 g ai/ha), 10; in the test on oat, wild (31 g ai/ha) it was 0; in the test on oat, wild (250 g ai/ha), 20. Further, the “Plant response rating, Galium” value amounted to 45 with galium (Preemergence, 62 g ai/ha) and 0 with galium (Preemergence, 31 g ai/ha). Besides, the “Plant response rating, Poinsettia, Wild” value in the test with wild poinsettia (16 g ai/ha), in the test on wild poinsettia (31 g ai/ha), in the test on wild poinsettia (62 g ai/ha), with wild poinsettia (125 g ai/ha) and in the test with wild poinsettia (250 g ai/ha) was 0 in each case. For the same compound, the “Plant response rating, Buckwheat, Wild” value with buckwheat, wild (Preemergence, 62 g ai/ha) was determined as 0; in the test on buckwheat, wild (Preemergence, 31 g ai/ha), 0. The “Plant response rating, Kochia” value with kochia (31 g ai/ha) is on record as 60; in the test with kochia (62 g ai/ha), 60; with kochia (125 g ai/ha) it was 80; in the test with kochia (250 g ai/ha) it was 90.
